“Also recorded” adds a separate entry of the source.
How the values were obtained:
[1] = system: Beagle dogs; experiment: Dog study: plasma hormones, electrolytes and renal function; type: in vivo; settings: for plasma renin activity: both acetazolamide protocols (iv, po)
Description: A total of 30 experiments were performed on six female Beagle dogs (body wt 14.3±0.3 kg). The dogs were kept under highly standardized conditions and received a standardized diet five days before the experiments. The preparation and catheterization of the conscious dog were performed according to former experiments as in Höhne C., et al., J Appl Physiol (2004), which is hereby incorporated by reference in its entirety. To permit spontaneous breathing through a low resistance circuit, a face mask was attached, which enclosed the dog's snout in a leak proof fashion. This custom made mask is equipped with a 2.5 cm ID connector to connect it to a ventilator set to CPAP mode (3 4 cmH20) (Servo900C; Siemens-Elema, Erlangen/Germany).
Six dogs were studied in five different protocols in randomized order:
4) Benzolamide intravenously: Bolus (2 mg/kg), followed by a continuous infusion of 2 mg·kg^−1·h^−1, a dosage which inhibits only renal and vascular endothelial extracellular CA, without affecting red cell CA as in Travis D. M., et al. J Pharmacol Exp Ther (1964), which is hereby incorporated by reference in its entirety. 5) Ethoxzolamide (Sigma-Aldrich, Steinheim/Germany) intravenously: Bolus ethoxzolamide (1 mg/kg), followed by a continuous infusion of 1 mg·kg^−1·h^−1.
In control experiments, the dogs breathed room air (21% O2, 79% N2; normoxia) for one hour, followed by breathing a gas mixture containing 10% O2 and 90% N2 for two hours (hypoxia). The time course was the same for the CA inhibitor experiments, but F1O2 was reduced to 0.09 during the hypoxia period to match the arterial and alveolar PO2 of the control dogs, which otherwise would have been higher on 10% O2 as a result of the known ventilatory stimulant effect of all CA inhibitors. See Höhne C., et al., J Appl Physiol 97:515-521 (2004), which is hereby incorporated by reference in its entirety. The hemodynamic measurements (arterial blood pressure, heart rate, central venous pressure, pulmonary artery pressure, pulmonary capillary wedge pressure), minute ventilation, renal function data, time points for blood samples for blood gases, actual bicarbonate, base excess, plasma electrolytes and hormones, measurements of plasma and urinary values were according to former studies. See Höhne C., et al., J Appl Physiol 90:1842-1848 (2001), which is hereby incorporated by reference in its entirety.
Values are given as means±SEM (n=6). For intra-group comparisons a general linear model of analysis of variance (GLM-ANOVA) for repeated measures was applied (NCSS97/PASS 2000, Saugus/MA, USA). Post-hoc testing of means was performed with Student's t-test. Level of significance for error of first order was adjusted according to Holm's procedure. Statistical significance was assumed at p<0.05.

[2] = system: PASMCs; experiment: KCl-induced Ca2+ responses in PASMCs; type: cell-based, rat
Description: Intrapulmonary arteries (200-600 μm o.d.) were isolated from male Wistar rats (250-350 g) and cleaned of connective tissue. After the lumen was gently rubbed with a cotton swab to remove the endothelial cells, the arteries were allowed to recover for 30 minutes in cold (4° C.) HBSS containing (in mM): 130 NaCl, 5 KCl, 1.2 MgCl2, 1.5 CaCl2, 10 N-[2-hydroxyethyl]piperazine-N′-[2-ethanesulfonic acid] (HEPES) and 10 glucose, with pH adjusted to 7.2 with 5 M NaOH, followed by 20 minutes in reduced-Ca^2+ (20 μM CaCl2) HBSS at room temperature. […] Following digestion, single smooth muscle cells were dispersed by gentle trituration with a wide-bore transfer pipette in Ca^2+-free HBSS and the cell suspension was placed on 25 mm glass cover slips. PASMCs were transiently cultured in Ham's-F-12 media supplemented with 0.5% fetal bovine serum and 1% penicillin/streptomycin for 24-48 hrs. before study.
Acute hypoxia increases intracellular [Ca^2+] in pulmonary arterial smooth muscle by enhancing capacitative Ca^2+ entry. […] Ratiometric measurement of fluorescence from the dye was performed on a workstation (Intracellular Imaging Inc, Cincinnati, Ohio) consisting of a Nikon TSE 100 Ellipse inverted microscope with epi-fluorescence attachments. The light beam from a xenon arc lamp was filtered at 340 and 380 nm, and focused onto the PASMCS under examination via a 20× fluorescence objective (Super Fluor 20, Nikon). Light emitted from the cell at 510 nm was returned through the objective and detected by a cooled CCD imaging camera. An electronic shutter (Sutter Instruments) was used to minimize photobleaching of dye. Protocols were executed and data collected on-line with InCyte software (Intracellular Imaging Inc). [Ca^2+]i was estimated from in vitro calibration solutions.

[3] = system: humans; settings: 250 mg tid; Balanos et al. abstract 2006; cited from earlier work
[4] = iv bolus + continuous infusion, hypoxia 2nd h
[5] = iv bolus + continuous infusion, hypoxia 3rd h
[6] = iv bolus + continuous infusion, normoxia 1st h
[7] = po 5 mg/kg 12 and 1 hr before, hypoxia 2nd h
[8] = po 5 mg/kg 12 and 1 hr before, hypoxia 3rd h
[9] = po 5 mg/kg 12 and 1 hr before, normoxia 1st h

SMILES: CCOc1ccc2nc(S(N)(=O)=O)sc2c1 [EZ, ethoxzolamide]
- plasma renin activity during hypoxia ([1]; iv bolus + continuous infusion): did not change
- GFR, glomerular filtration rate [1, 4]: 3.1 ± 0.2 mL/min/kg
- PK, plasma potassium concentration [1, 4]: 2.8 ± 0.1 mM
- UV, urine volume [1, 4]: 0.072 ± 0.022 mL/min/kg
- GFR, glomerular filtration rate [1, 5]: 3.2 ± 0.2 mL/min/kg
- PK, plasma potassium concentration [1, 5]: 2.7 ± 0.1 mM
- UV, urine volume [1, 5]: 0.045 ± 0.006 mL/min/kg
- GFR, glomerular filtration rate [1, 6]: 3.2 ± 0.2 mL/min/kg
- PK, plasma potassium concentration [1, 6]: 3.1 ± 0.1 mM
- UV, urine volume [1, 6]: 0.052 ± 0.009 mL/min/kg

SMILES: CC(=O)Nc1nnc(S(N)(=O)=O)s1 [AZ, acetazolamide]
- effect on KCl-induced increase in [Ca^2+]i ([2]; 100 μM): no effect; also recorded: not altered
- [Ca^2+]i after KCl ([2]; KCl 60 mM, pretreatment 100 μM): 292.6 ± 21.2 nM
- mean change in [Ca^2+]i in response to KCl ([2]; KCl 60 mM, pretreatment 100 μM, control 123.4±20.6 nM): 134.7 ± 18.2 nM
- [Ca^2+]i before KCl ([2]; pretreatment 100 μM): 157.8 ± 11.9 nM
- plasma renin activity ([1]; hypoxia): 5 to 5.6 ng/mL/h
- plasma renin activity ([1]; normoxia): 2.9 to 3.2 ng/mL/h
- reduction of glomerular filtration rate vs controls ([1]; iv 2 mg/kg + 2 mg/kg/h, non-significant): 12%
- GFR, glomerular filtration rate [1, 4]: 3.3 ± 0.1 mL/min/kg
- PK, plasma potassium concentration [1, 4]: 2.8 ± 0.1 mM
- UV, urine volume [1, 4]: 0.161 ± 0.022 mL/min/kg
- GFR, glomerular filtration rate [1, 5]: 3.4 ± 0.2 mL/min/kg
- PK, plasma potassium concentration [1, 5]: 2.8 ± 0.1 mM
- UV, urine volume [1, 5]: 0.071 ± 0.01 mL/min/kg
- GFR, glomerular filtration rate [1, 6]: 3.4 ± 0.1 mL/min/kg
- PK, plasma potassium concentration [1, 6]: 3.0 ± 0.1 mM
- UV, urine volume [1, 6]: 0.099 ± 0.013 mL/min/kg
- GFR, glomerular filtration rate [1, 7]: 3.4 ± 0.3 mL/min/kg
- PK, plasma potassium concentration [1, 7]: 2.9 ± 0.1 mM
- UKV, urinary potassium concentration [1, 7]: 1.6 ± 0.3 µmol/min/kg
- UV, urine volume [1, 7]: 0.083 ± 0.024 mL/min/kg
- urinary excretion rate (potassium in 2.2, sodium in 2.3) [1, 7]: 1.6 ± 0.3 µmol/min/kg
- GFR, glomerular filtration rate [1, 8]: 3.3 ± 0.2 mL/min/kg
- PK, plasma potassium concentration [1, 8]: 2.9 ± 0.1 mM
- UKV, urinary potassium concentration [1, 8]: 1.6 ± 0.4 µmol/min/kg
- UV, urine volume [1, 8]: 0.048 ± 0.011 mL/min/kg
- urinary excretion rate (potassium in 2.2, sodium in 2.3) [1, 8]: 1.3 ± 0.1 µmol/min/kg
- GFR, glomerular filtration rate [1, 9]: 3.1 ± 0.2 mL/min/kg
- PK, plasma potassium concentration [1, 9]: 2.9 ± 0.1 mM
- UV, urine volume [1, 9]: 0.057 ± 0.011 mL/min/kg
- reduction of HPV in humans [3]: 50%

SMILES: NS(=O)(=O)c1nnc(NS(=O)(=O)c2ccccc2)s1 [BZ, benzolamide]
- plasma renin activity during hypoxia ([1]; iv bolus + continuous infusion): did not change
- GFR, glomerular filtration rate [1, 4]: 3.0 ± 0.2 mL/min/kg
- PK, plasma potassium concentration [1, 4]: 2.9 ± 0.1 mM
- UV, urine volume [1, 4]: 0.104 ± 0.023 mL/min/kg
- GFR, glomerular filtration rate [1, 5]: 3.2 ± 0.2 mL/min/kg
- PK, plasma potassium concentration [1, 5]: 2.8 ± 0.1 mM
- UV, urine volume [1, 5]: 0.065 ± 0.015 mL/min/kg
- GFR, glomerular filtration rate [1, 6]: 2.9 ± 0.2 mL/min/kg
- PK, plasma potassium concentration [1, 6]: 3.0 ± 0.1 mM
- UV, urine volume [1, 6]: 0.066 ± 0.007 mL/min/kg
